Values joined by “and” are separate entries in the source; they are usually repeats but may differ in a detail not shown here. Equal values may be shown once. Read-outs that look alike come from different tables or passages of the source.
Tests used:
MAO-B [1] = type: in vivo, Macaca fascicularis
Description: Each PET measurement was performed on a separate experimental day. Experiments conducted in the same NHP were separated by at least 6 weeks. Baseline PET measurements were initially undertaken in each of the five NHPs.
Time curves for regional [^18F]GEH200449 binding at baseline were analyzed by kinetic modeling using 1-TC and 2-TC models,[32] and VT as outcome measures. Akaike information criterion[33] and F statistics were applied to select the preferred model. Regional estimates of VT for [^18F]GEH200449 were also obtained using the Logan linear graphical method[34] with t* fixed at 40 min. The analyses were performed using the kinetic modeling tool in PMOD v. 4.3. Occupancy at [^18F]GEH200449 binding sites was estimated based on regional VT values obtained by the Logan method at baseline and after drug administration according to a graphical procedure described in the literature.[22]

MAO-B [2] = test system: MAO-B; parameters: method as in PMID 31589885; settings: cited from earlier work

| SMILES | effect on [^18F]GEH200449 regional radioactivity (MAO-B [1]; 1.0 mg/kg, 15 min before PET, NHP #5) | affinity toward MAO-B (MAO-B [2]) | effect on [^18F]GEH200449 regional radioactivity (MAO-B [1]; 0.15 mg/kg, 15 min before PET, NHP #3) | occupancy at MAO-B ([^18F]GEH200449 binding sites) (MAO-B [1]; 0.75 mg/kg IV, 45 min before radioligand, NHP #4, graphical analysis of VT) | inhibitory effect on [^18F]GEH200449 binding, dose dependency (MAO-B [1]; 0.25 and 0.75 mg/kg pretreatment, NHP #4) | effect on [^18F]GEH200449 regional radioactivity (MAO-B [1]; pretreatment 45 min before radioligand injection) |
| --- | --- | --- | --- | --- | --- | --- |
| CN1CC(=O)NC1=NC(=O)Nc1cccc(Cl)c1 [fenobam] | reduction | high affinity |  |  |  |  |
| N#Cc1cc(F)cc(-c2nc(-c3ccc(F)cn3)no2)c1 [AZD9272] |  | high affinity | reduction |  |  |  |
| C#CCN[C@@H]1CCc2ccccc21 [rasagiline, N-Propargyl-1R(+)-Aminoindan] |  |  |  | 97% and > 80% | more pronounced after the higher dose | inhibited |

Source: paper PMC10485887, “PET Evaluation of the Novel F-18 Labeled Reversible Radioligand [^18F]GEH200449 for Detection of Monoamine Oxidase-B in the Non-Human Primate Brain” (ACS Chemical Neuroscience, 2023)
